In patent publication US7544686B2, “Piperazinylalkylpyrazole derivatives useful as selective T-type calcium channel blockers and preparation method thereof” (Korea Institute of Science and Technology, priority 2005, dated 2009):

Tests used:
α1G T-type Ca^2+ channel = biological target: T1, α1G T-type Ca^2+ channel (Homo sapiens, UniProt O43497); assay: T-type Ca2+ channel blocking activity in HEK293 cells, whole-cell patch clamp; assay type: cell-based; details: HEK293 cells expressing α1G; for IC50: whole-cell patch clamp, -100 mV to -30 mV; for inhibition at 10 µM: 10 μM (0.1% DMSO), peak current
T1 construct: expressed in transfected cells; host or cells: HEK293 cells, G-418 selected
T1 sequence (O43497 whole entry): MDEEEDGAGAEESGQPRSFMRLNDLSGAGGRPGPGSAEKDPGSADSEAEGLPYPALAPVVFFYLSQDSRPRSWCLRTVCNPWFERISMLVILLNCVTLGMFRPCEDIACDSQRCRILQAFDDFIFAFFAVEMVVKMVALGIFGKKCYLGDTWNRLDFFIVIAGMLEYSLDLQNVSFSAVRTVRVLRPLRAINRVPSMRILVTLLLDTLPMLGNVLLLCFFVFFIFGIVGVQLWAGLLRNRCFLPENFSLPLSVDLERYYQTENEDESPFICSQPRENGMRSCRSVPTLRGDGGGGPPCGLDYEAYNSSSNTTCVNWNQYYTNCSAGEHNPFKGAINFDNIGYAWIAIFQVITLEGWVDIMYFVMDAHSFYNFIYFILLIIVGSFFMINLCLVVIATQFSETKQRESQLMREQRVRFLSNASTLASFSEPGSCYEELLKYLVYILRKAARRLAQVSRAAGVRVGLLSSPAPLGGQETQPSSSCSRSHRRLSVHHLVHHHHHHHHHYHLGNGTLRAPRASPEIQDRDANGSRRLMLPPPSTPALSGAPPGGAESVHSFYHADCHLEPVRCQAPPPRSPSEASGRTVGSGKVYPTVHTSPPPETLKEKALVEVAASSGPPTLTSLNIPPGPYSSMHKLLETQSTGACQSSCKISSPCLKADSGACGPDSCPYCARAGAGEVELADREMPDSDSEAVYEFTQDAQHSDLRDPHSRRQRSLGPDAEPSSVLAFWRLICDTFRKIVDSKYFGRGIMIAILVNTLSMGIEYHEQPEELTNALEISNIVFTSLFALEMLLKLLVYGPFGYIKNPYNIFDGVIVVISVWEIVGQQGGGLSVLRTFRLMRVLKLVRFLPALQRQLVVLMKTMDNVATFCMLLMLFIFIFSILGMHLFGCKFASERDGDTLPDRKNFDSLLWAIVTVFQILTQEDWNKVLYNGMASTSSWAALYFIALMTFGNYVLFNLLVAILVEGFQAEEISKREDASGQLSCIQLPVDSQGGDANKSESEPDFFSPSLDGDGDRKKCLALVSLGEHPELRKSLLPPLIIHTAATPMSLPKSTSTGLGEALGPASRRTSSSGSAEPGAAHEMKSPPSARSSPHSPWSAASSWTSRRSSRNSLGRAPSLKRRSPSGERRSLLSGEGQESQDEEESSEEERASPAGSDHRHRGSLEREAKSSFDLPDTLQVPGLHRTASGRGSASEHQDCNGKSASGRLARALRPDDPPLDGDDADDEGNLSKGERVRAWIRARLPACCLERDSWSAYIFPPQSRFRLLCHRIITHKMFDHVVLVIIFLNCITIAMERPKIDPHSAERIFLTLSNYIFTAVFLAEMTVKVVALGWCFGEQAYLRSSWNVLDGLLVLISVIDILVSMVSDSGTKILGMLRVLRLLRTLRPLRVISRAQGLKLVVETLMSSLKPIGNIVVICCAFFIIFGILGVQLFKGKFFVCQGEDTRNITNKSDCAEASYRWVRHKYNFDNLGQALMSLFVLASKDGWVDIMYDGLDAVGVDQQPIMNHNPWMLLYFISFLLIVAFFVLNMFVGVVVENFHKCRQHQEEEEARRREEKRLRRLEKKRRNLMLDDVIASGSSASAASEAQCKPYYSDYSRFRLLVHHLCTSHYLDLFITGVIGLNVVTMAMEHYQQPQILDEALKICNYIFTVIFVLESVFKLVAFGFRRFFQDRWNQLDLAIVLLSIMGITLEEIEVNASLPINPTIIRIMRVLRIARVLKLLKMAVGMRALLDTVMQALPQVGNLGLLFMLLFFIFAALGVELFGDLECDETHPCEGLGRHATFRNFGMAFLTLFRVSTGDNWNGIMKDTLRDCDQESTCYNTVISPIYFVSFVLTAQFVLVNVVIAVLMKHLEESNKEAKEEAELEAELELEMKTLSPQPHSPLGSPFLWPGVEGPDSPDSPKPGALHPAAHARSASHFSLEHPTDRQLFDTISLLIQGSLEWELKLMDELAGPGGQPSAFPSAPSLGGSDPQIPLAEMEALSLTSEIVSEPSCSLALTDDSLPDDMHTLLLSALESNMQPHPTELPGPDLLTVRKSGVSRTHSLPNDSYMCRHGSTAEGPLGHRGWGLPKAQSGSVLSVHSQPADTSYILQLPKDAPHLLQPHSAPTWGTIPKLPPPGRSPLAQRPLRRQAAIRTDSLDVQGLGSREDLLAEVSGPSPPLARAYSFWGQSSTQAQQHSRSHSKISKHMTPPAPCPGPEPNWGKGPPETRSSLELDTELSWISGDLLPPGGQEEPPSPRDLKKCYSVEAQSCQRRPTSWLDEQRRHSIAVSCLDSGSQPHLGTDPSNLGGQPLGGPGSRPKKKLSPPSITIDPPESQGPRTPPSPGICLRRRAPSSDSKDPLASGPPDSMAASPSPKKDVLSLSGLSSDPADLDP
Description: (§1) In order to evaluate the pharmaceutical effects induced by the compounds of the present invention, the inhibitory effects were examined according to the following procedure. As the first step, those that show more than 50% of inhibition to the calcium channel (α1H) expressed in Xenopus oocytes were screened. For the second step, α1G Ca^2+ channel activities expressed in HEK 293 cells were measured to determine the effective inhibition concentration IC50.
Measurement of T-type Ca^2+ Channel Blocking Activity of HEK293 Cells by Using Electrophysiological Method
The culture medium was prepared by adding 10% fetal bovine serum (FBS) and 1% penicillin/streptomycin (v/v) to Dulbecco's modified Eagle's medium (DMEM). The cells were cultured in an incubator having a wet condition of 95% air/5% CO2 at 37° C. The medium was replaced every 3 to 4 days and the cells were sub-cultured every week such that only the cells that expressed α1G T-type Ca^2+ channels could be grown using G-418 (0.5 mg/ml) solution. The cells that were used to measure T-type Ca^2+ channel activity were incubated on a cover slip coated by poly-L-lysine (0.5 mg/ml) every time they were sub-cultured and then recorded after 2 to 3 days. T-type Ca^2+ channel currents at the single-cell level were determined by the electrophysiological whole-cells patch clamp technique using EPC-9 amplifier (HEKA, German). Extracellular solution of NaCl 140 mM, CaCl2 2 mM, HEPES 10 mM (pH 7.4), and intracellular solution of KCl 130 mM, HEPES 10 mM, EGTA 11 mM, MgATP 5 mM (pH 7.4) were used for T-type Ca^2+ channel blocking activity. As the low voltage-activated T-type Ca^2+ channel activity protocol, a fine glass electrode of 3-4 MΩ resistance containing the above-prepared intracellular solution was inserted into a single cell to become the whole-cell recording mode, followed by fixing the potential of the cell membrane at −100 mV and measuring the inward current of the T-type Ca^2+ channel activity when […] at −30 mV (50 ms duration) every 15 seconds. Each compound was dissolved in 100% dimethylsulfoxide (DMSO) to prepare 10 mM stock solution, and then the effect of T-type Ca^2+ channel current at 1,000 fold diluted concentration of 10 μM (including 0.1% DMSO) was initially measured before IC50 values were determined by testing the effects at the concentration range for the IC50 measurement (in general, 0.1-100 μM). Specifically, cells were treated with each compound along with the extracellular solution until T-type Ca^2+ channel currents were stabilized under whole-cell voltage-clamp conditions and the inhibition level of the peak current due to the compound was calculated and expressed in percentage.

calcium channel (α1H) = biological target: T2, calcium channel (α1H) (Homo sapiens, UniProt O95180); assay: Inhibition of calcium channel (α1H) expressed in Xenopus oocytes (first-step screen); assay type: cell-based; details: read-out: % Inhibition in oocyte (100 μM)
T2 construct: expressed in transfected cells; host or cells: Xenopus oocytes
T2 sequence (O95180 whole entry): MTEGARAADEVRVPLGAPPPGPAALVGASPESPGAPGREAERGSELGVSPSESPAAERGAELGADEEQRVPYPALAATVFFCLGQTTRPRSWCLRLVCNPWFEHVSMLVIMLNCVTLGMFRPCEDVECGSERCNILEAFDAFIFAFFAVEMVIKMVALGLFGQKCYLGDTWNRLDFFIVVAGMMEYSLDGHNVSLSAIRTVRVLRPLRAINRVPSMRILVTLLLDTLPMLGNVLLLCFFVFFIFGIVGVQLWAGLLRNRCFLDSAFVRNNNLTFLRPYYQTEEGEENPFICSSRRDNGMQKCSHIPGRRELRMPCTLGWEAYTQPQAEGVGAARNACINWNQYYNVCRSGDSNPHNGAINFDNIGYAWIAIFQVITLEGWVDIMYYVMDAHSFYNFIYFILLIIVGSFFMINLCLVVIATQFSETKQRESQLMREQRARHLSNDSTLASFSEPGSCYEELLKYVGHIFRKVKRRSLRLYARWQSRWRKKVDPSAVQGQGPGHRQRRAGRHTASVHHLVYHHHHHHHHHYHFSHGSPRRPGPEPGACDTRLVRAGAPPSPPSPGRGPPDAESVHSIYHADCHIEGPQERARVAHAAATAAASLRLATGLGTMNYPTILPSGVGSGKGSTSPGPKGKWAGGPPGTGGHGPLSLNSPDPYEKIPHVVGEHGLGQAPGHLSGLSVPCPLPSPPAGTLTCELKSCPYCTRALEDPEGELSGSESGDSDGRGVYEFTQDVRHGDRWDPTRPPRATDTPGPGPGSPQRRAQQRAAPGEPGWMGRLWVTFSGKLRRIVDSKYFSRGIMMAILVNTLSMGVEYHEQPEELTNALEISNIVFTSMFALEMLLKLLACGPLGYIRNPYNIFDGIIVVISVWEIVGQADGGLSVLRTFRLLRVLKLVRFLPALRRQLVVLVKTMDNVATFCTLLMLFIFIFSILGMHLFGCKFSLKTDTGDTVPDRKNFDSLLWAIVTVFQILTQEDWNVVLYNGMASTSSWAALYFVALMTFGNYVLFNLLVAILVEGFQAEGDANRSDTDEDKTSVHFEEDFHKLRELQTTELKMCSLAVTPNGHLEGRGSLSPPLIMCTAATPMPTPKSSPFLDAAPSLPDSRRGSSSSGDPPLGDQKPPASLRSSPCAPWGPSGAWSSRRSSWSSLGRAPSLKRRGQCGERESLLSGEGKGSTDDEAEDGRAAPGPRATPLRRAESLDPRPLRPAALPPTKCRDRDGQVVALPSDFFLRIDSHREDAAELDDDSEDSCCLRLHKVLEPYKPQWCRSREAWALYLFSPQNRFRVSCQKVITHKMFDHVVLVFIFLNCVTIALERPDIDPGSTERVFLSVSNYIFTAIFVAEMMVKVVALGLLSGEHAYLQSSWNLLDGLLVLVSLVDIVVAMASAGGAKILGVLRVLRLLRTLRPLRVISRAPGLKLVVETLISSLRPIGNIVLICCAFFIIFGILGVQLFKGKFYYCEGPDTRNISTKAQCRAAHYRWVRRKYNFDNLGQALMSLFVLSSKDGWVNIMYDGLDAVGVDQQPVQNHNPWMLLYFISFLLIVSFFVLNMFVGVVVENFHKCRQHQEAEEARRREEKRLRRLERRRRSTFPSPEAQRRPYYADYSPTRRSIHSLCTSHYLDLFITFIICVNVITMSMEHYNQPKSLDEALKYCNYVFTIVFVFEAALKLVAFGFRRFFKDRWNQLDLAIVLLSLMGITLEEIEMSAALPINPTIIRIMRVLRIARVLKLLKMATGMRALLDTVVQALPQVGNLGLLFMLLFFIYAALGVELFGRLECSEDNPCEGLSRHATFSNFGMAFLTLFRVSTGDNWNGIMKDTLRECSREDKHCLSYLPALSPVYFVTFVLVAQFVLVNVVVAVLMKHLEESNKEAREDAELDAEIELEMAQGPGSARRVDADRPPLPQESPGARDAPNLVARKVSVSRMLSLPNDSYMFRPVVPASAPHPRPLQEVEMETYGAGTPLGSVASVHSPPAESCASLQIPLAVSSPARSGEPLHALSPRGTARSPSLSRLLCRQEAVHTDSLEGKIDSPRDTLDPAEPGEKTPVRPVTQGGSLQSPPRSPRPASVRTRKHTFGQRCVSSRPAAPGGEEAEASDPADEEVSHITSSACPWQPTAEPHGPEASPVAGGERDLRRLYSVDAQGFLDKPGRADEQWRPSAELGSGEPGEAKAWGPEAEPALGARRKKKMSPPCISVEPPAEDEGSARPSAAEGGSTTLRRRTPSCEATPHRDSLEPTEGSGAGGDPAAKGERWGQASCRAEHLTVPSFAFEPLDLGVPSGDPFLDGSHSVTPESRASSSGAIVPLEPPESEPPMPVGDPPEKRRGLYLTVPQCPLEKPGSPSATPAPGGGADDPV
Description: as §1

| Compound | IC50 (α1G T-type Ca^2+ channel) | inhibition at 100 µM (calcium channel (α1H)) | inhibition at 10 µM (α1G T-type Ca^2+ channel) |
| --- | --- | --- | --- |
| CC(C)Cc1cc(CNCCN2CCN(c3ccc([N+](=O)[O-])cc3)CC2)nn1C(C)(C)C [compound 52, 1-t-butyl-5-iso-butyl-3-{2-[4-(4-nitrophenyl)piperazin-1-yl]ethyl}aminomethylpyrazole] | 1770 ± 200 nM | 56.4% | – |
| CCCc1cc(CNCCN2CCN(c3cccc(Cl)c3)CC2)nn1-c1ccccc1 [compound 76, 3-{2-[4-(3-chlorophenyl)piperazin-1-yl]ethyl}aminomethyl-1-phenyl-5-propylpyrazole] | 900 ± 90 nM | 44.7% | 75.8 ± 1% |
| CCCc1cc(CNCCN2CCN(c3cccc(C)c3C)CC2)nn1C(C)(C)C [compound 15, 1-t-butyl-3-{2-[4-(2,3-dimethylphenyl)piperazin-1-yl]ethyl}aminomethyl-5-propylpyrazole] | 1430 ± 150 nM | 27.5% | 79.4 ± 1.6% |
| CCCc1cc(CNCCN2CCN(c3ccc([N+](=O)[O-])cc3)CC2)nn1-c1ccccc1 [compound 51, 3-{2-[4-(4-nitrophenyl)piperazin-1-yl]ethyl}aminomethyl-1-phenyl-5-propylpyrazole] | 660 ± 70 nM | 51.3% | 95.3 ± 1.4% |
| COc1ccc(N2CCN(CCNCc3cc(CC(C)C)n(-c4ccccc4)n3)CC2)cc1 [compound 42, 5-iso-butyl-3-{2-[4-(4-methoxyphenyl)piperazin-1-yl]ethyl}aminomethyl-1-phenyl pyrazole] | 1040 ± 150 nM | 73.3% | 95.6 ± 1.8% |
| CCCc1cc(CNCCN2CCN(c3cccc(C)c3C)CC2)nn1-c1ccccc1 [compound 16, 3-{2-[4-(2,3-dimethylphenyl)piperazin-1-yl]ethyl}aminomethyl-1-phenyl-5-propylpyrazole] | 580 ± 50 nM | 74.6% | 95.9 ± 0.7% |
| CC(C)Cc1cc(CNCCN2CCN(c3ccc([N+](=O)[O-])cc3)CC2)nn1-c1ccccc1 [compound 53, 5-iso-butyl-3-{2-[4-(4-nitrophenyl)piperazin-1-yl]ethyl}aminomethyl-1-phenylpyrazole] | 1060 ± 20 nM | 74.4% | 94.8 ± 1.3% |
| CC(C)Cc1cc(CNCCN2CCN(c3ccccc3)CC2)nn1-c1ccccc1 [compound 7, 5-iso-butyl-1-phenyl-3-[2-(4-phenylpiperazin-1-yl)ethyl]aminomethylpyrazole] | 820 ± 40 nM | 77.1% | 87.9 ± 2.7% |
| COc1ccc(N2CCN(CCNCc3cc(C)n(-c4ccccc4)n3)CC2)cc1 [compound 37, 3-{2-[4-(4-methoxyphenyl)piperazin-1-yl]ethyl}aminomethyl-5-methyl-1-phenylpyrazole] | 9410 ± 550 nM | – | 53 ± 1.6% |
| Cc1cccc(N2CCN(CCNCc3cc(CC(C)C)n(-c4ccccc4)n3)CC2)c1C [compound 18, 5-iso-butyl-3-{2-[4-(2,3-dimethylphenyl)piperazin-1-yl]ethyl}aminomethyl-1-phenylpyrazole] | 1020 ± 100 nM | 92% | 92.7 ± 5.7% |
| CCCc1cc(CNCCN2CCN(c3ccc(OC)cc3)CC2)nn1-c1ccccc1 [compound 39, 3-{2-[4-(4-methoxyphenyl)piperazin-1-yl]ethyl}aminomethyl-5-propyl-1-phenylpyrazole] | 900 ± 70 nM | 67.8% | 91.6 ± 0.5% |

The remaining lines, values ahead:

| IC50 (α1G T-type Ca^2+ channel) | inhibition at 100 µM (calcium channel (α1H)) | inhibition at 10 µM (α1G T-type Ca^2+ channel) | Compound |
| --- | --- | --- | --- |
| 660 ± 40 nM | 54.9% | 93.8 ± 1.4% | CCCc1cc(CNCCN2CCN(c3ccccc3F)CC2)nn1-c1ccccc1 [compound 63, 3-{2-[4-(2-fluorophenyl)piperazin-1-yl]ethyl}aminomethyl-1-phenyl-5-propylpyrazole] |
| 2190 ± 30 nM | 40.4% | 89.9 ± 0.3% | CC(C)Cc1cc(CNCCN2CCN(C(c3ccccc3)c3ccccc3)CC2)nn1C(C)(C)C [compound 84, 1-t-butyl-5-iso-butyl-3-{2-[4-(4-diphenylmethyl)piperazin-1-yl]ethyl}aminomethylpyrazole] |
| 650 ± 30 nM | 92.9% | 100% | CCCc1cc(CNCCN2CCN(C(c3ccccc3)c3ccc(Cl)cc3)CC2)nn1-c1ccccc1 (stereo not shown) [compound 94, 3-{2-[4-(4-chlorobenzhydryl)piperazin-1-yl]ethyl}aminomethyl-1-phenyl-5-propylpyrazole] |
| 330 ± 660 nM | 34.5% | 79.2 ± 3.3% | Cc1cc(CNCCN2CCN(C(c3ccccc3)c3ccc(Cl)cc3)CC2)nn1-c1ccccc1 (stereo not shown) [compound 92, 3-{2-[4-(4-chlorobenzhydryl)piperazin-1-yl]ethyl}aminomethyl-5-methyl-1-phenylpyrazole] |
| 570 ± 60 nM | 95.4% | 97.4 ± 1.3% | Cc1cc(CNCCN2CCN(C(c3ccccc3)c3ccccc3)CC2)nn1-c1ccccc1 [compound 81, 3-{2-[4-(4-diphenylmethyl)piperazin-1-yl]ethyl}aminomethyl-5-methyl-1-phenylpyrazole] |
| 300 ± 30 nM | 80.1% | 94.5 ± 2.8% | CCCc1cc(CNCCN2CCN(c3ccccc3)CC2)nn1-c1ccccc1 [compound 4, 5-propyl-1-phenyl-3-[2-(4-phenylpiperazin-1-yl)ethyl]aminomethylpyrazole] |
| 300 ± 40 nM | 97.8% | 92.4 ± 1.8% | CCCc1cc(CNCCN2CCN(C(c3ccccc3)c3ccccc3)CC2)nn1-c1ccccc1 [compound 83, 3-{2-[4-(4-diphenylmethyl)piperazin-1-yl]ethyl}aminomethyl-1-phenyl-5-propylpyrazole] |
| 4420 ± 890 nM | 24.8% | 60.5 ± 0.6% | CCCc1cc(CNCCN2CCN(C(c3ccccc3)c3ccccc3)CC2)nn1C(C)(C)C [compound 82, 1-t-butyl-3-{2-[4-(4-diphenylmethyl)piperazin-1-yl]ethyl}aminomethyl-5-propyl pyrazole] |
